Legend:
[1] = system: sensitized cavies attacked by antigen (egg albumin); experiment: Inflammatory cells in bronchial lung lavage solution of sensitized cavies after antigen attack (Table 3); format: in vivo, cavy; conditions: 0.5 mg/kg Ip, 10 days
Procedure: 2% egg albumin gel solution is used to cause allergy and is subcutaneously injected (0.05 mL each part) in ten parts of two retral soles, groin, waist, back, neck and armpits of each cavy. 0.5 mL 2% egg albumin gel solution is intraperitoneally injected at the same time. The medicine samples are injected since the tenth day after allergy has been caused. The testing samples of A2, B2, C2 or physiological saline solution (NS, 0.5 mL/kg) or dexamethasone (DXM, […]) are intraperitoneal injected respectively; A1, B1 (5 g/kg), C1 (2.5 g/kg) are administered by intragaster. The above testing samples are administered 10 days. A1: fermentation mycelium powder; […]: culture supernatant concentrated fluid; C1: sporophore powder; A2: water extract of fermentation mycelium; B2: fermentation concentrated fluid; C2: water extract of sporophore powder; dexamethasone sodium phosphate. Asthma as a chronic airway inflammatory disease is characterized by significant increase of eosinophils of bronchus and lung. Eosinophils can release tens of inflammatory substances, such as cytokines, leukotriene and prostapar etc., which may cause inflammation, edema, injury and thickening of airway, make narrow airway and therefore lead to dyspnea. Thus, eosinophil is considered as a target of screening drugs for relieving cough at present. The medicine, which can inhibit inflammation of airway eosinophils, would probably be used for preventing and treating asthma.

[2] = system: sensitized cavies attacked by antigen (egg albumin); experiment: Elementarily separated substances: inflammatory cells in bronchial lung lavage solution of sensitized cavies after antigen attack (Table 5); format: in vivo, cavy; conditions: 0.5 mg/kg intraperitoneal, 10 days
Procedure: 2% egg albumin gel solution is used to cause allergy. The medicine samples are administered since the tenth day after allergy has been caused. The cavies are administered by introgaster method with this tested medicine sample or with physiological saline solution (10 ml/kg); or administered by intraperitoneal method with dexamethasone (0.5 mg/kg). All of the testing medicine samples are administered 10 days. A: total polysaccharide extracted from fermentation product; B: total alkaloids extracted from fermentation product; C: volatile oil extracted from fermentation product; D: organic acid extracted from fermentation product; E: water extract of fermentation product; positive control: dexamethasone.

[3] = system: sensitized cavies attacked by antigen (egg albumin); experiment: Example 4 polysaccharide: inflammatory cells in bronchial lung lavage solution of sensitized cavies after antigen attack (Table 7); format: in vivo, cavy; conditions: 0.5 mg/kg
Procedure: Take 20 g fermentation mycelial powder, add in 400 mL distilled water, boil and extract for 30 min. After filtration, add another 200 mL distilled water to the residue, then repeat the same steps. Mix the filtrate of the two times and add in 100 mL culture supernatant fluid. Then put the mixture into dialysis bag of retention molecular weight 10,000 Dalton and dialyze 10 mM pH6.0 buffer solution of HAc-NaAc 2000 mL for three days to remove small molecular substances in the solution. Change the penetrated liquid 1 time each day.
Then concentrate the residue to 100 mL. On animal test, the polysaccharide affects inflammatory cells in bronchial lung lavage solution of sensitized cavies after being attacked by antigen. (The results are described in Table 7.) 2% egg albumin gel solution is used to cause allergy and is subcutaneous injected (0.05 mL each part) in ten parts of two retral soles, groin, waist, back, neck and armpits of each cavy. 0.5 mL 2% egg albumin gel solution is intraperitoneal injected at the same time. The samples are injected since the tenth day after allergy has been caused.

[4] = system: cavy cough caused by citric acid; experiment: Cough reverberation of cavy caused by citric acid; format: in vivo; conditions: 10 mg · kg^−1, once daily 3 days
Procedure: Put cavies into a volume marked box to stabilize for 1 min, and then atomize 15% citric acid for 2 min by ultrasonic nebulizer. From then on, select the cavies that cough more than 10 times in minutes. Divide the selected cavies into 5 groups in terms of their cough times, and then treat them respectively with testing medicine sample CVFS 0.3 g/kg, 0.9 g/kg, 2.7 g/kg, positive control codeine phosphate (10 mg/kg), and the negative control group is administered by intragater method with 10 ml·kg^−1 physiological saline solution (i.g), one time every day, altogether 3 days. 1 hour after the last administration of medicine, induce cough by above method and count the cough times in 10 min from the beginning of atomization.

[5] = system: sensitized cavies attacked by antigen (1% egg albumin); experiment: Pulmonary mechanical function (lung resistance RL) of sensitized cavies after antigen attack; format: in vivo, cavy; conditions: 7 mg/kg×1 d; P<0.05˜0.01 in all time phases during 10 min after antigen attack
Procedure: Suppose airway resistance (RL) is 1005 before being attacked by antigen. Compared with the model group: *P<0.05, **P <0.001, ***P<0.001.
Each cavy is sensitized by being injected 10 mg egg albumin into the muscles of its crus. 3-4 weeks later, antigen attack (1% egg albumin) is given and the caused changes of lung resistance (RL) are observed to evaluate the activity of the samples.

C[C@@H]1C[C@H]2[C@@H]3CCC4=CC(=O)C=C[C@]4(C)[C@@]3(F)[C@@H](O)C[C@]2(C)[C@@]1(O)C(=O)CO [DXM, dexamethasone]
Eosinophils [1]: 2.60 ± 3.9 % | Leukocyte total number [1]: 241.6 ± 179.2 Number/mm^3 | Lymphocyte [1]: 68.4 ± 18.4 % | Neutrophil [1]: 28.9 ± 16.6% | Eosinophils [2]: 0.00 ± 0.00 % | Leukocyte total number [2]: 330.5 ± 254.3 Number/mm3 | Lymphocyte [2]: 87.70 ± 18.73 % | Neutrophil [2]: 12.30 ± 18.74% | Eosinophil [3]: 0.00 ± 0.00 % | Leukocyte counts [3]: 330.5 ± 254.3 Number/mm3 | Lymphocyte [3]: 87.70 ± 18.73 % | Neutrophil [3]: 12.30 ± 18.74%

COc1ccc2c3c1O[C@H]1[C@@H](O)C=C[C@H]4[C@@H](C2)N(C)CC[C@@]341 [Codeine phosphate, codeine phosphate]
Cough times (in 10 min) [4]: 9.4 ± 8.0 | Inhibition of cough times % [4]: 67.4%

CC(C)(C)NCC(O)c1ccc(O)c(CO)c1 (stereo not drawn) [salbutamol]
inhibition of increase of lung resistance (RL) caused by antigen attack [5]: evident inhibition

From patent US20040241184A1, “Fermentation product of cyptoporous volvatus and its preparation method and use” (priority 2001, published 2004)
